Test results published in patent US7820714B2, “Siglec inhibitors” (priority 2001, dated 2010).
Where two headings read alike, the source gives them in different places.

Key:
[1] = target: T1, Siglec-4a (MAG) (UniProt P20917); assay: Hapten inhibition assay, Siglec-4a (MAG); conditions: for Siglec-4a (MAG) rIP: quotient IC50 reference compound / IC50 compound; for IC50: read-out: Siglec-4a (MAG) IC50
T1 sequence (P20917 1-627): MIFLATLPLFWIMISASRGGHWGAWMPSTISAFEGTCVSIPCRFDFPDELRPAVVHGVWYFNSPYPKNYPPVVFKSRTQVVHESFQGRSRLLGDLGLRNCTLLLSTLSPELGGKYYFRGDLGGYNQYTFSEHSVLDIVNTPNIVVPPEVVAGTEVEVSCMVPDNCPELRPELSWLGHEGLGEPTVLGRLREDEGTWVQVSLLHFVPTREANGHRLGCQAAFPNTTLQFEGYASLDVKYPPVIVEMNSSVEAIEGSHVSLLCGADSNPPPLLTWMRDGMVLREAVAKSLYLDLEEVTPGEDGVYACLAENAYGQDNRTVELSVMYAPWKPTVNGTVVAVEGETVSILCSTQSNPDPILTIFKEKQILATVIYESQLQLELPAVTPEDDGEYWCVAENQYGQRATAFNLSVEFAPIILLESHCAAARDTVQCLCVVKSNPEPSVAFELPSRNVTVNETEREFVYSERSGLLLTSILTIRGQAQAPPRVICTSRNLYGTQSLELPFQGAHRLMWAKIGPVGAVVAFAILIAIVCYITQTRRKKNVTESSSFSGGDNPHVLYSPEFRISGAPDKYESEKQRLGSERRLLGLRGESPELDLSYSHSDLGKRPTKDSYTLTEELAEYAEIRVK
Procedure: Preferably, the inhibition can be determined by a Hapten inhibition test. […] After overnight incubation at 4° C. the unbound complexes are removed by washing the cells and the bound radioactivity is determined. […] Then followed the addition of 10 μl of a suspension of target cells, preferably 0.25 to 0.5% of human erythrocytes and incubation overnight at 4° C. The unbound radioactivity is removed by washing the cells five times with 200 μl of washing buffer, preferably phosphate-buffered saline with 0.1% (W/V) bovine serum albumin, and the cell-bound activity is determined with a γ-counter. […] The inhibition is determined in that the value without inhibitor is set to 0% and that with the sialidase-treated cells is set equal to 100%.

[2] = target: Siglec-1 (sialoadhesin) (Mus musculus, UniProt Q62230); assay: Hapten inhibition assay, Siglec-1 (sialoadhesin); assay type: binding; conditions: for Siglec-1 (sialoadhesin) rIP: quotient IC50 reference compound / IC50 compound; for Siglec-1 (sialoadhesin) percentage in parentheses below the IC50 bound: at the concentration of the IC50 bound, meaning not defined in the patent
Sequence of Siglec-1 (sialoadhesin) (Q62230 20-136 limits assumed): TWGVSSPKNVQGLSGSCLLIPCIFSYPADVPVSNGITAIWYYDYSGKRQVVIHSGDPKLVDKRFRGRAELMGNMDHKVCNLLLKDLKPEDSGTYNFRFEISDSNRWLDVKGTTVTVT
Procedure: (§1) Preferably, the inhibition can be determined by a Hapten inhibition test. […] After overnight incubation at 4° C. the unbound complexes are removed by washing the cells and the bound radioactivity is determined. From the data obtained in this way, the concentrations are found which lead to 50% inhibition of the binding (IC50 values) (5, 6). Specially preferred during the Hapten inhibition test was 10 μl of the complex solution with an activity of 10^3 Bq ^125I mixed with the same volume of a solution of the substance to be investigated (concentrated three times) and incubated at 4° C. for one hour. Then followed the addition of 10 μl of a suspension of target cells, preferably 0.25 to 0.5% of human erythrocytes and incubation overnight at 4° C. The unbound radioactivity is removed by washing the cells five times with 200 μl of washing buffer, preferably phosphate-buffered saline with 0.1% (W/V) bovine serum albumin, and the cell-bound activity is determined with a γ-counter. […] The inhibition is determined in that the value without inhibitor is set to 0% and that with the sialidase-treated cells is set equal to 100%.
(§2) The IC50 value is the siglec inhibitor concentration which leads to 50% inhibition in the binding in the Hapten inhibition assay.

[3] = target: T2, Siglec-2 (murine CD22) (Mus musculus, UniProt P35329); assay: Hapten inhibition assay, Siglec-2 (murine CD22); assay type: binding; conditions: for Siglec-2 (murine CD22) rIP: quotient IC50 reference compound / IC50 compound
T2 sequence (P35329 22-148 limits assumed): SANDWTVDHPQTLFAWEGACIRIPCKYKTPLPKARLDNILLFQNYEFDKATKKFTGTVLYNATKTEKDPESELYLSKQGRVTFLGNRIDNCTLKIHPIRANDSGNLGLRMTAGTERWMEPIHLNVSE
Procedure: as §1, §2

[4] = target: T3, Siglec-2 (human CD22) (Homo sapiens, UniProt P20273); assay: Hapten inhibition assay, Siglec-2 (human CD22); assay type: binding; conditions: for Siglec-2 (human CD22) rIP: quotient IC50 reference compound / IC50 compound
T3 sequence (P20273 20-138 limits assumed): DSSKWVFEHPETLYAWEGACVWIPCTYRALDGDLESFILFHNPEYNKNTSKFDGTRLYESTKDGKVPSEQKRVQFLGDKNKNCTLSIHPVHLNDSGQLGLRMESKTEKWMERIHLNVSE
Procedure: as §1, §2

[5] = at the concentration of the IC50 bound, meaning not defined in the patent

Row | Compound | Siglec-4a (MAG) rIP [1] | IC50 ([1]; unit inferred) [mM] | Siglec-1 (sialoadhesin) rIP [2] | IC50 ([2]; unit inferred) [mM] | Siglec-2 (murine CD22) rIP [3] | IC50 ([3]; unit inferred) [mM] | Siglec-2 (human CD22) rIP [4] | IC50 ([4]; unit inferred) [mM] | Siglec-1 (sialoadhesin) percentage in parentheses below the IC50 bound [2] | IC50 ([2]; bounds given in mM) [mM] | Siglec-4a (MAG) percentage in parentheses below the IC50 bound [1, 5] | IC50 ([1]; bounds given in mM) [mM] | Siglec-2 (murine CD22) percentage in parentheses below the IC50 bound [3, 5] | IC50 ([3]; bounds given in mM) [mM] | Siglec-2 (human CD22) percentage in parentheses below the IC50 bound [4, 5] | IC50 ([4]; bounds given in mM) [mM]
1 | CO[C@]1(C(=O)O)C[C@H](O)[C@@H](NC(C)=O)[C@H]([C@H](O)[C@H](O)CNC(=O)c2cccc3ccccc23)O1 [Methyl-α-9-N-(naphthyl-1-carbonyl)-amino-9-desoxy-Neu5Ac] | 84 | 0.056 | 0.3 | 3 | 64 | 0.092 | 27 | 0.037 |  |  |  |  |  |  |  | 
2 | CO[C@]1(C(=O)O)C[C@H](O)[C@@H](NC(C)=O)[C@H]([C@H](O)[C@H](O)CNC(=O)Cc2ccc(-c3ccccc3)cc2)O1 [Methyl-α-9-N-(biphenyl-4-acetyl)-amino-9-desoxy-Neu5Ac] |  |  | 0.3 | 3 | 48 | 0.123 | 29 | 0.035 |  |  |  |  |  |  |  | 
3 | CO[C@]1(C(=O)O)C[C@H](O)[C@@H](NC(C)=O)[C@H]([C@H](O)[C@H](O)CO)O1 [Methyl-α-Neu5Ac, reference compound] | 1.0 | 4.72 | 1.0 | 0.884 | 1.0 | 4.69 | 1.0 | 1.39 |  |  |  |  |  |  |  | 
4 | CO[C@]1(C(=O)O)C[C@H](O)[C@@H](NC(C)=O)[C@H]([C@H](O)[C@H](O)CNC(=O)c2cc(O)cc(O)c2)O1 [Methyl-α-9-N-(3,5-dihydroxybenzoyl)-amino-9-desoxy-Neu5Ac] | 166 | 0.028 | 1.7 | 0.525 |  | 1.47 | 19 | 0.073 |  |  |  |  |  |  |  | 
5 | CCOc1c(N[C@H]2[C@H]([C@H](O)[C@H](O)CO)O[C@@](OC)(C(=O)O)C[C@@H]2O)c(=O)c1=O [Methyl-α-5-N-(etoxycylcobutendion)-neuraminic acid] | 0.5 | 4.3 | <<0.15 |  | 1.5 | 3.37 | 2.3 | 0.94 | (92%) | > 5 |  |  |  |  |  | 
6 | CO[C@]1(C(=O)O)C[C@H](O)[C@@H](NC(C)=O)[C@H]([C@H](O)[C@H](O)CNC(=O)c2ccc([N+](=O)[O-])cc2[N+](=O)[O-])O1 [Methyl-α-9-N-(2,4-dinitrobenzoyl)-amino-9-desoxy-Neu5Ac] | 18 | 0.205 | 0.3 | 0.733 | 7.9 | 0.593 | 7.7 | 0.287 |  |  |  |  |  |  |  | 
7 | CO[C@]1(C(=O)O)C[C@H](O)[C@@H](NC(C)=O)[C@H]([C@H](O)[C@H](O)CNC(=O)c2ccccc2-c2ccccc2)O1 [Methyl-α-9-N-(biphenyl-2-carbonyl)-amino-9-desoxy-Neu5Ac] |  |  | 0.3 | 2.6 | 9.5 | 0.647 | 10 | 0.097 |  |  |  |  |  |  |  | 
8 | Methyl-α-9-N-fluoresceinyl-amino-9-desoxy-Neu5Ac | 41 | 0.106 | <<0.5 |  | 48 | 0.1 | 28 | 0.077 | (121%) | > 1.5 |  |  |  |  |  | 
9 | CO[C@]1(C(=O)O)C[C@H](O)[C@@H](NC(C)=O)[C@H]([C@H](O)[C@H](O)CNC(=O)C(c2ccccc2)c2ccccc2)O1 [Methyl-α-9-N-(diphenylacetyl)-amino-9-desoxy-Neu5Ac] | 31 | 0.15 | 0.2 | 4.4 |  | 0.103 |  | 0.035 |  |  |  |  |  |  |  | 
10 | COc1ccc(C(=O)NC[C@@H](O)[C@@H](O)[C@@H]2O[C@@](OC)(C(=O)O)C[C@H](O)[C@H]2NC(C)=O)cc1 [Methyl-α-9-N-(4-methoxybenzoyl)-amino-9-desoxy-Neu5Ac] | 393 | 0.012 | 8.4 | 0.042 | 7.4 | 0.667 | 19 | 0.12 |  |  |  |  |  |  |  | 
11 | COC1(C(=O)O)CC(O)C(O)C(C(O)C(O)CO)O1 (stereo not drawn) [Methyl-α-ketodesoxy-nonulsonic acid] | <<0.5 |  | <0.8 |  | <1.5 |  | <<2 |  | (74%) | > 1 | (225%) | > 1 | (74%) | > 2 | (117%) | > 1
12 | Methyl-α-9-N-(cyclobutendion)-amino-9-desoxy-Neu5Ac |  |  |  |  | 7.4 | 0.62 | 5.7 | 0.18 |  |  |  |  |  |  |  | 
13 | CO[C@]1(C(=O)O)C[C@H](O)[C@@H](NC(=O)CO)[C@H]([C@H](O)[C@H](O)CO)O1 [Methyl-α-5-N-glycolyl-neuraminic acid] |  |  |  |  | 8.3 | 0.703 | 1.0 | 1.01 |  |  |  |  |  |  |  | 
14 | COC1(C(=O)O)CC(O)C(NC(C)=O)C(C(O)C(O)CNC(=O)c2cccc(Oc3ccccc3)c2)O1 (stereo not drawn) [Methyl-α-9-N-(phenoxy-3-benzoyl)-amino-9-desoxy-Neu5Ac] |  |  | 1.5 | 0.54 | 6.7 | 0.887 | 111 | 0.01 |  |  |  |  |  |  |  | 
